# Data taken from patent US20210323913A1, “SIGMA RECEPTOR BINDERS” (BOARD OF REGENTS, THE UNIVERSITY OF TEXAS SYSTEM, priority 2016, published 2021).
# Read-outs that look alike come from different tables or passages of the source.
# How the values were obtained:
# Alpha2A = target: T1, Alpha2A (Homo sapiens, UniProt P08913); experiment: Radioligand competition binding, Alpha2A; details: Table 5; Cheng-Prusoff from best fit IC50
# T1 sequence (P08913 1-465): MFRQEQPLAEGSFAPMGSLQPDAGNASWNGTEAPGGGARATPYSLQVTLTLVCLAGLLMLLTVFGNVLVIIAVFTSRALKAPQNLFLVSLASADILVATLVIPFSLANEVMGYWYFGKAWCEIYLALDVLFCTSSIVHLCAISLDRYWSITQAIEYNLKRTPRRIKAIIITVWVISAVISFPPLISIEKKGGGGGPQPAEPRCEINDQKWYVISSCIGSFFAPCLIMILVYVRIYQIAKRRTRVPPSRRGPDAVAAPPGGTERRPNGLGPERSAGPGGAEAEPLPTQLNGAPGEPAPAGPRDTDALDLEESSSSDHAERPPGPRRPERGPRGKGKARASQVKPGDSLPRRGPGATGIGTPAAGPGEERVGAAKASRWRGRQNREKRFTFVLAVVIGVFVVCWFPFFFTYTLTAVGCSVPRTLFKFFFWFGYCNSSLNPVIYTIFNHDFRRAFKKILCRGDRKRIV
# sigma 1 receptor = sigma 1 receptor (Homo sapiens, UniProt Q99720); experiment: Sigma 1 receptor radioligand competition binding; details: Table 1, 7-piperazinyl-tetrahydronaphthalene analogs; read-out: Ki (nM) Sig1R
# D3 = D3 (Homo sapiens, UniProt P35462); experiment: Radioligand competition binding, D3; details: Table 5; Cheng-Prusoff from best fit IC50; one value marked (AVE)
# 5-HT1A = target: T2, 5-HT1A (Homo sapiens, UniProt P08908); experiment: Radioligand competition binding, 5-HT1A; details: Table 5; Cheng-Prusoff from best fit IC50
# T2 sequence (P08908 1-422): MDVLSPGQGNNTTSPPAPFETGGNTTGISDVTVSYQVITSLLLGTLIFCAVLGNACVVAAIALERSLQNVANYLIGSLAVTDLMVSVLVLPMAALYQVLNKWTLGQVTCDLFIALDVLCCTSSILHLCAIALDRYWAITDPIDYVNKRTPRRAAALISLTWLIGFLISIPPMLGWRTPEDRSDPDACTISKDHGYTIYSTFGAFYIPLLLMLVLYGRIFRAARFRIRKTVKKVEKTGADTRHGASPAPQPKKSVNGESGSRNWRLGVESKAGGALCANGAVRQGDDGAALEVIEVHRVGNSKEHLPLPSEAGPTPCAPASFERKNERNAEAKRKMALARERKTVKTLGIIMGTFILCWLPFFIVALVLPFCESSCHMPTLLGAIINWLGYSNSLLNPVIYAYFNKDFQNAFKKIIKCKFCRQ
# 5-HT1B = 5-HT1B (Homo sapiens, UniProt P28222); experiment: Radioligand competition binding, 5-HT1B; details: Table 5; Cheng-Prusoff from best fit IC50
# 5-HT1D = 5-HT1D (Homo sapiens, UniProt P28221); experiment: Radioligand competition binding, 5-HT1D; details: Table 5; Cheng-Prusoff from best fit IC50
# 5-HT2A = 5-HT2A (Homo sapiens, UniProt P28223); experiment: Radioligand competition binding, 5-HT2A; details: Table 5; Cheng-Prusoff from best fit IC50
# sigma 2 receptor = sigma 2 receptor (Homo sapiens, UniProt Q5BJF2); experiment: Sigma 2 receptor radioligand competition binding; details: for Ki ratio Sig1R/Sig2R: Table 1, ratio of Sig1R Ki to Sig2R Ki
# D4 = target: T3, D4 (Homo sapiens, UniProt P21917); experiment: Radioligand competition binding, D4; details: Table 5; Cheng-Prusoff from best fit IC50
# T3 sequence (P21917 1-419): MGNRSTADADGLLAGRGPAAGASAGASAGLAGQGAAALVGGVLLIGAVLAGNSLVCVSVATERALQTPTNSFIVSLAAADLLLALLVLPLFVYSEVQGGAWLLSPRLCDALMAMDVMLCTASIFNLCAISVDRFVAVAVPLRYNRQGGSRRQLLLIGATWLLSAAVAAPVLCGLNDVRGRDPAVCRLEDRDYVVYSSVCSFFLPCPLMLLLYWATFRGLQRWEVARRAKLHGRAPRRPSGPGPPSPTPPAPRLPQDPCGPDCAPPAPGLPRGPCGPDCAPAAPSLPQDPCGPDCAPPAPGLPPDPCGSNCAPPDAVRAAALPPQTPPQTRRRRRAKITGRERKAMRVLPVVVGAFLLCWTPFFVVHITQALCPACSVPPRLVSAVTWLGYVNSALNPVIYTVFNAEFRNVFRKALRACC
# D5 = D5 (Homo sapiens, UniProt P21918); experiment: Radioligand competition binding, D5; details: Table 5; Cheng-Prusoff from best fit IC50
# 5-HT2B = 5-HT2B (Homo sapiens, UniProt P41595); experiment: Radioligand competition binding, 5-HT2B; details: Table 5; Cheng-Prusoff from best fit IC50
# D1 = D1 (Homo sapiens, UniProt P21728); experiment: Radioligand competition binding, D1; details: Table 5; Cheng-Prusoff from best fit IC50; some values marked (AVE)
# D2 = D2 (Homo sapiens, UniProt P14416); experiment: Radioligand competition binding, D2; details: Table 5; Cheng-Prusoff from best fit IC50
# H2 = H2 (Homo sapiens, UniProt P25021); experiment: Radioligand competition binding, H2; details: Table 5; Cheng-Prusoff from best fit IC50
# DAT = DAT (Homo sapiens, UniProt Q01959); experiment: Radioligand competition binding, DAT; details: Table 5; Cheng-Prusoff from best fit IC50
# 5-HT6 = 5-HT6 (Homo sapiens, UniProt P50406); experiment: Radioligand competition binding, 5-HT6; details: Table 5; Cheng-Prusoff from best fit IC50
# 5-HT7 = 5-HT7 (Homo sapiens, UniProt P34969); experiment: Radioligand competition binding, 5-HT7; details: Table 5; Cheng-Prusoff from best fit IC50
# KOR = KOR (Homo sapiens, UniProt P41145); experiment: Radioligand competition binding, KOR; details: Table 5; Cheng-Prusoff from best fit IC50; some values marked (AVE)
# M4 = M4 (Homo sapiens, UniProt P08173); experiment: Radioligand competition binding, M4; details: Table 5; Cheng-Prusoff from best fit IC50; one value marked (AVE)
# 5-HT2C = target: T4, 5-HT2C (Homo sapiens, UniProt P28335); experiment: Radioligand competition binding, 5-HT2C; details: Table 5; Cheng-Prusoff from best fit IC50
# T4 sequence (P28335 33-458): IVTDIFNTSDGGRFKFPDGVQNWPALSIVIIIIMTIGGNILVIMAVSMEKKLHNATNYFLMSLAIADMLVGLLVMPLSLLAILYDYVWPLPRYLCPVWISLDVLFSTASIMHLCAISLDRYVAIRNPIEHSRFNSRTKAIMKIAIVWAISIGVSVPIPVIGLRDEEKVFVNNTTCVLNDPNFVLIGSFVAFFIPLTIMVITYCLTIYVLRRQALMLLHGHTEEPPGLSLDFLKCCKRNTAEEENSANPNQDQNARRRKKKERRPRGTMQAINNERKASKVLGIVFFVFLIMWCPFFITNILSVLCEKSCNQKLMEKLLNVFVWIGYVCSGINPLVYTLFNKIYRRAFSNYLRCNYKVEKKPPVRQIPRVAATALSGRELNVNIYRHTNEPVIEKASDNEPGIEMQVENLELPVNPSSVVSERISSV
# H3 = H3 (Homo sapiens, UniProt Q9Y5N1); experiment: Radioligand competition binding, H3; details: Table 5; Cheng-Prusoff from best fit IC50
# Alpha1D = Alpha1D (Homo sapiens, UniProt P25100); experiment: Radioligand competition binding, Alpha1D; details: Table 5; Cheng-Prusoff from best fit IC50
# M5 = M5 (Homo sapiens, UniProt P08912); experiment: Radioligand competition binding, M5; details: Table 5; Cheng-Prusoff from best fit IC50
# H1 = H1 (Homo sapiens, UniProt P35367); experiment: Radioligand competition binding, H1; details: Table 5; Cheng-Prusoff from best fit IC50
# PBR = PBR (UniProt P16257); experiment: Radioligand competition binding, PBR; details: Table 5; Cheng-Prusoff from best fit IC50; one value marked (AVE)
# 5-ht5a = 5-ht5a (Homo sapiens, UniProt P47898); experiment: Radioligand competition binding, 5-ht5a; details: Table 5; Cheng-Prusoff from best fit IC50
# Alpha2C = Alpha2C (Homo sapiens, UniProt P18825); experiment: Radioligand competition binding, Alpha2C; details: Table 5; Cheng-Prusoff from best fit IC50
# Alpha1A = Alpha1A (Homo sapiens, UniProt P35348); experiment: Radioligand competition binding, Alpha1A; details: Table 5; Cheng-Prusoff from best fit IC50
# Beta3 = Beta3 (Homo sapiens, UniProt P13945); experiment: Radioligand competition binding, Beta3; details: Table 5; Cheng-Prusoff from best fit IC50
# [1] = Table 1, 7-piperazinyl-tetrahydronaphthalene analogs, read-out: Ki (nM) Sig2R
# [2] = Table 5, Cheng-Prusoff from best fit IC50, read-out: Ki Sigma 2
SMILES,Ki (Alpha2A) [nM],Ki (sigma 1 receptor) [nM],Ki (D3) [nM],Ki (5-HT1A) [nM],Ki (5-HT1B) [nM],Ki (5-HT1D) [nM],Ki (5-HT2A) [nM],Ki (sigma 2 receptor; [1]) [nM],Ki ratio Sig1R/Sig2R (sigma 2 receptor),Ki (sigma 2 receptor; [2]) [nM],Ki (D4) [nM],Ki (D5) [nM],Ki (5-HT2B) [nM],Ki (D1) [nM],Ki (D2) [nM],Ki (H2) [nM],Ki (DAT) [nM],Ki (5-HT6) [nM],Ki (5-HT7) [nM],Ki (PBR) [nM],also measured
"CCCN1CCN(c2ccc3c(c2)C(N(CCC)C(=O)OCc2ccccc2)CCC3)CC1 (stereo not shown) [MDW-1-196, Benzyl propyl(7-(4-propylpiperazin-1-yl)-1,2,3,4-tetrahydronaphthalen-1-yl)carbamate]",980,199,177,3800,1310,1100,1280,9,22,9.4,2510,> 10000,2140,1920,931,1040,1910,1960,1050,,
"CN(C(=O)OCc1ccccc1)C1CCCc2ccc(N3CCN(C4CCCC4)CC3)cc21 (stereo not shown) [MDW-1-140, Benzyl (7-(4-cyclopentylpiperazin-1-yl)-1,2,3,4-tetrahydronaphthalen-1-yl)(methyl)carbamate]",1110,86,462,367,,509,547,2,41,2.1,,2600,263,457,,211,,1020,1480,4060,Ki (KOR): ≥ 10000 nM; Ki (M4): 2980 nM; Ki (5-HT2C): 1460 nM; Ki (H3): 965 nM; Ki (Alpha1D): 1810 nM; Ki (M5): 3690 nM; Ki (H1): 28 nM; Ki (5-ht5a): 2500 nM
"CN(Cc1cc(Cl)cc(Cl)c1)C1CCCc2ccc(N3CCOCC3)cc21 (stereo not shown) [MDW-1-131, N-(3,5-dichlorobenzyl)-N-methyl-7-morpholino-1,2,3,4-tetrahydronaphthalen-1-amine]",,,3390,,,,,,,522,,,,,,,,,,902,Ki (Alpha2C): 2540 nM; Ki (H1): 182 nM
"CCCN(C(=O)OCc1ccccc1)C1CCCc2ccc(N3CCN(CCC(=O)OCC)CC3)cc21 (stereo not shown) [MDW-1-191, Ethyl 3-(4-(8-(((benzyloxy)carbonyl)(propyl)amino)-5,6,7,8-tetrahydronaphthalen-2-yl)piperazin-1-yl)propanoate]",,2360,315,569,441,1140,1730,19,124,,1720,,771,,2410,1290,> 10000,1560,891,1670,Ki (Alpha1A): 1410 nM; Ki (5-ht5a): 1530 nM
"CN(C(=O)OCc1ccccc1)C1CCCc2ccc(N3CCN(CCCO)CC3)cc21 (stereo not shown) [MDW-1-177, Benzyl (7-(4-(3-hydroxypropyl)piperazin-1-yl)-1,2,3,4-tetrahydronaphthalen-1-yl)(methyl)carbamate]",,474,597,528,261,136,632,21,23,21,> 10000,,99,1350,,291,,1230,585,,Ki (Beta3): 8040 nM
